Counter-ions that a name gives are not always drawn. Like-named read-outs stand apart in the source and are kept apart here.
Columns and labels:
[1] = pH 3
Protocol: The solubility of droloxifene citrate was determined in an aqueous phosphate buffer at pH 3, without and with various levels of cyclodextrins. Solubility testing of droloxifene citrate in solutions of the cydodextrins, SBECD and HPBCD, was conducted using an equilibrium solubility method. The following protocol was employed for the solubility determination.
Separate 0.02 M aqueous buffer solutions of phosphoric acid (H3 PO4) and 0.02 M dibasic sodium phosphate (Na2 HPO4) were prepared by dissolving 2.25 gm and 2.84 gm, respectively, into separate one liter portions of deionized water and stirring with a magnetic stir bar until dissolved. To obtain a pH 3 buffer, the two previous buffers were combined, at an approximate ratio of 2:1 (H3 PO4 buffer:Na2 HPO4 buffer). The final volume of the resulting pH 3 buffer was not critical.
To 25 mL volumetric flasks, weights of either HPBCD or SBECD were added to produce final concentrations of each cyclodextrin shown in Table 1. For example, to prepare a 2% w/v solution of HPBCD in pH 3 phosphate buffer, 0.5 gm of HPBCD was accurately added to a 25 mL volumetric flask. […]
To 5 mL glass vials with screw caps, 3 mL of the desired cyclodextrin solution was added. […] The contents were filtered into a clean screw cap vial through a Millex-HV 0.45 μm filter (Millipore, Bedford, Mass.) and the drug concentration determined by an HPLC method. […]

[2] = pH 3, 30° C., 840 footcandle fluorescent light
Protocol: The stability of droloxifene citrate was determined at pH 3 with various concentrations of SBECD and HPBCD. For this protocol, the 0.02 M sodium phosphate buffer of pH 3 and the cyclodextrin solutions were prepared as for the droloxifene solubility determination described previously. 10 mL of each cyclodextrin solution was added to an 18 mL clear glass vial with screw cap which contained a previously weighed amount of droloxifene citrate. The vials were swirled until dissolution of droloxifene citrate was complete. The concentration of droloxifene citrate ranged from 0.05-0.1 mgA/mL. Concentrations of HPBCD included 0.2, 2, 4, 7 and 10% w/v. Concentrations of SBECD included 0.33 and 3.3% w/v. The vials were stored in an 840 footcandle fluorescent light box at 30° C. The solutions were removed briefly from time to time to allow drug concentration determination using the HPLC method described as for the solubility determination.

[3] = Stability of droloxifene out of light / in light-protected solutions; format: physicochemical
Text: The results in Table 2 (below) show a stability enhancement of droloxifene with the inclusion of cyclodextrins. The concentration of cyclodextrin that results in the greatest stabilizing effect depends on the efficiency of the formation of the droloxifene-cyclodextrin inclusion complex, that is, the stability constant, as well as the initial concentration of droloxifene present. […] This stability improvement is further useful for preconstituted aqueous solutions which must have a long practical shelf-life, e.g., 2 years, even if packaged in a partially light-protected package. […] While not wishing to be held to any theory, it is believed that incorporation of droloxifene in the cyclodextrin cavity minimizes a cis-trans isomerization reaction, thus reducing the formation of the isomeric decay product and resulting in an overall stability improvement.

Decay Rate Constant ([2]; 0.2% HPBCD) [h⁻¹]	Time Required for 1% Decay ([2]; 0.2% HPBCD) [h]	Decay Rate Constant ([2]; 0.33% SBECD) [h⁻¹]	Time Required for 1% Decay ([2]; 0.33% SBECD) [h]	Decay Rate Constant ([2]; 2% HPBCD) [h⁻¹]	Time Required for 1% Decay ([2]; 2% HPBCD) [h]	Decay Rate Constant ([2]; 3.3% SBECD) [h⁻¹]	Time Required for 1% Decay ([2]; 3.3% SBECD) [h]	Decay Rate Constant ([2]; no cyclodextrin) [h⁻¹]	Time Required for 1% Decay ([2]; no cyclodextrin) [h]	stability out of light ([3]; out of light vs in light)	SMILES	solubility with cyclodextrin [1]	stability in light-protected solutions ([3]; light-protected solutions with beta-cyclodextrins present)
0.0094	1.1	0.0090	1.1	0.0030	3.3	0.0070	1.4	0.0123	0.8		CC/C(=C(/c1ccc(OCCN(C)C)cc1)c1cccc(O)c1)c1ccccc1 [droloxifene citrate]	enhancement of droloxifene citrate solubility with cyclodextrin	
										significantly more stable out of light	CC/C(=C(/c1ccc(OCCN(C)C)cc1)c1cccc(O)c1)c1ccccc1 [droloxifene, 1-[4'-(2-dimethylaminoethoxy)phenyl]-1-(3'-hydroxyphenyl)-2-phenylbut-1-ene]		an improvement in stability is also observed

— US6077871A, “Droloxifene pharmaceutical compositions” (Pfizer Inc., priority 1998, dated 2000)
